Values joined by “and” are separate entries in the source; they are usually repeats but may differ in a detail not shown here. Identical values can stand only once.
Experiments:
Colo320 cells = assay: Annexin-V-FITC/PI apoptosis induction assay (flow cytometry); type: cell-based, human; conditions: for Cell death % Q1 / Early apoptosis % Q3 / Late apoptosis and necrosis % Q2: 3 h induction
Experimental: To gain further insights into the cytotoxic behavior of the compounds, apoptosis induction by lead compounds HL^1 and [Cu(L^2)Cl] was investigated by a flow cytometry analysis of multidrug-resistant Colo320 cells stained with Annexin-V-FITC and propidium iodide (PI).
Colo320 cells were treated at the indicated concentration of the drugs. The dual parametric dot plots that combine the Annexin-V (FL1) and PI (FL3) fluorescence show the viable cell population in the lower-left quadrant Annexin-V–/PI– (Q4), the early apoptotic cells in the lower-right quadrant Annexin-V+/PI– (Q3), and the late apoptotic and necrotic cells in the upper-right quadrant Annexin-V+/PI+ (Q2). […]
2.5.3. Mechanisms of cell death: assay for apoptosis induction
The assay was carried out for selected compounds using an Annexin V-FITC Apoptosis Detection
Kit (Cat. No. APOAF-50TST) from Sigma according to the manufacturer's instructions. The
concentration of the Colo320 cell suspension was adjusted to approximately 0.5 × 10^6 cells per
mL in RPMI medium and the cell suspension was distributed in 1 mL aliquots into a 24-well plate,
and then incubated overnight at 37 °C and 5% CO2. On the following day, the medium was
removed and replaced by 1 mL RPMI medium containing the compounds except the control
samples. Colo320 cells were incubated in the presence of the compounds at 4 and 8 μM (HL1), or
0.25 and 0.50 μM (Cu(HL2)Cl2) in the 24-well plate at 37 °C for 3 h, and 12H-
controls. After the incubation period the samples were washed with PBS and fresh RPMI medium
was added to the samples. The cells were incubated overnight at 37 °C and 5% CO2. The next day,
200 μL 0.25% Trypsin (Trypsin-Versen) was added to the samples until cells appeared detached
followed by the addition of 400 μL of RPMI medium supplemented with 10% bovine serum. The
cells were collected in Eppendorf tubes and centrifuged at 2000 g for 2 min. The harvested cells
were resuspended in fresh serum free RPMI medium culture medium. After this step, the apoptosis
assay was carried out according to the instructions of the manufacturer. The fluorescence was
analyzed immediately using a ParTec CyFlow flow cytometer (Partec GmbH, Münster, Germany). […]

SW480 cells = assay: Cell cycle distribution by flow cytometry; type: cell-based, human; conditions: 24 h
Description: […] TEXT PRINTED IN THE PICTURE: (A) no label printed: S: 27.7% | (B) no label printed: S: 33.8% | (C) no label printed: S: 44.0% | (D) no label printed: S: 46.5% DOUBTS OF THE COPYIST ABOUT THIS PICTURE: No substance labels are printed in the picture, only the panel letters A-D. / The phase label "S" is printed only in panel A. Applying it to the percentages in panels B, C and D is assumed from where the marker line sits.

Cc1cc(NC(=S)NN=Cc2ccccn2)cc(C)c1O [HL^1, 2-Formylpyridine 4-(4-hydroxy-3,5-dimethylphenyl)thiosemicarbazone]
Cell death % Q1 (Colo320 cells; 4 µM): 2.79% | Early apoptosis % Q3 (Colo320 cells; 4 µM): 6.19% | Late apoptosis and necrosis % Q2 (Colo320 cells; 4 µM): 12.4% | Cell death % Q1 (Colo320 cells; 8 µM): 1.57% | Early apoptosis % Q3 (Colo320 cells; 8 µM): 7.65% | Late apoptosis and necrosis % Q2 (Colo320 cells; 8 µM): 7.0% | viability at 4 µM (Colo320 cells; Homo sapiens, COLO 320, 4 μM, read-out: viable cell population Q4): 78.6% | G1 phase cells (SW480 cells; 1 µM): 48.5% | G2 phase cells (SW480 cells; 1 µM): 19.4% | S phase cells (SW480 cells; 1 µM): 32.0% | G0/G1 phase cells (SW480 cells; 10 µM): 49.2% and 49.2 ± 1.6% | G2/M phase cells (SW480 cells; 10 µM): 12.3% and 12.3 ± 4.4% | S phase cells (SW480 cells; 10 µM): 37.1 ± 4.7%

Source: publication PMC8335727 (Inorganic Chemistry, 2021)
